Source: patent publication US8574831B2, “Mutational profiles in HIV-1 reverse transcriptase correlated with phenotypic drug resistance” (Virco N.V., priority 2000, dated 2013)

Tested on: HIV with mutations in the HIV protease sequence
Assay: Phenotypic fold resistance to protease inhibitors, protease mutations 84A/84L/84C/54M/54L/54V in a background (Examples 8-13)
Assay type: cell-based, HIV-1
Outline: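 Recombinant-virus phenotyping: patient-derived PR/RT sequences amplified by PCR and recombined in CD4+ T cells into an HXB2 proviral clone deleted for those sequences. Chimeric viruses grown across drug concentrations; IC50 determined, and fold-resistance expressed as IC50 ratio versus wild-type susceptible laboratory HIV-1 tested in parallel.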

CC(C)c1nc(CN(C)C(=O)N[C@H](C(=O)N[C@@H](Cc2ccccc2)C[C@H](O)[C@H](Cc2ccccc2)NC(=O)OCc2cncs2)C(C)C)cs1 [Ritonavir, ritonavir]
mean fold increase in resistance (Table 9 #1, protease genotype WT): 0.6 fold
mean fold increase in resistance (Table 9 #2, protease genotype 10I): 1.15 fold
mean fold increase in resistance (Table 9 #3, protease genotype 46I): 0.8 fold
mean fold increase in resistance (Table 9 #4, protease genotype 46I + 84V): 4.6 fold
mean fold increase in resistance (Table 9 #5, protease genotype 46I + 84A): 51.8 fold
mean fold increase in resistance (Table 9 #6, protease genotype 10I + 46I): 1.5 fold
mean fold increase in resistance (Table 9 #7, protease genotype 10I + 46I + 84V): 11.9 fold
mean fold increase in resistance (Table 9 #8, protease genotype 10I + 46I + 84A): 77.3 fold
mean fold increase in resistance (Table 9 #9, protease genotype 10L/I + 46I + 84A): 114 fold
mean fold increase in resistance (Table 9 #10, protease genotype 10I + 46I + 84A): 44.5 fold
mean fold increase in resistance (Table 9 #11, protease genotype 46I + 71V): 1.4 fold
mean fold increase in resistance (Table 9 #12, protease genotype 46I + 71V + 84V/I): 1.8 fold
mean fold increase in resistance (Table 9 #13, protease genotype 46I + 71V + 84A): 102.2 fold
mean fold increase in resistance (Table 9 #14, protease genotype 10F + 46I + 71V): 4.1 fold
mean fold increase in resistance (Table 9 #15, protease genotype 10I + 46I + 71V + 84V): 45.6 fold
mean fold increase in resistance (Table 9 #16, protease genotype 10I + 46I + 71V + 84A): 114.9 fold
mean fold increase in resistance (Table 9 #17, protease genotype 10V + 46I + 71T + 84A): 91.9 fold
mean fold increase in resistance (Table 9 #18, protease genotype 10I + 46I + 71V + 77I): 1.65 fold
mean fold increase in resistance (Table 9 #19, protease genotype 10I + 46I + 71V + 77I + 84V): 3.1 fold
mean fold increase in resistance (Table 9 #20, protease genotype 10I + 46I + 71V + 77I + 84A): 121.3 fold
mean fold increase in resistance (Table 9 #21, protease genotype 10I + 33L/I + 46I + 71V + 77V/I + 84A): 38.6 fold
mean fold increase in resistance (Table 10 #1, protease genotype 10I + 36I + 71V): 1.2 fold
mean fold increase in resistance (Table 10 #2, protease genotype 10I + 36I + 71I + 84V): 1.5 fold
mean fold increase in resistance (Table 10 #3, protease genotype 10I + 36I + 71I + 84L): 0.8 fold
mean fold increase in resistance (Table 11 #1, protease genotype WT): 0.6 fold
mean fold increase in resistance (Table 11 #2, protease genotype 84V): 2.4 fold
mean fold increase in resistance (Table 11 #3, protease genotype 84C): 2.9 fold
mean fold increase in resistance (Table 11 #4, protease genotype 10I): 1.2 fold
mean fold increase in resistance (Table 11 #5, protease genotype 10I + 84V): 6.5 fold
mean fold increase in resistance (Table 11 #6, protease genotype 10I + 84C): 5.4 fold
mean fold increase in resistance (Table 11 #7, protease genotype 77I): 0.4 fold
mean fold increase in resistance (Table 11 #8, protease genotype 77I + 84V): 5.0 fold
mean fold increase in resistance (Table 11 #9, protease genotype 77I + 84C): 2.8 fold
mean fold increase in resistance (Table 11 #10, protease genotype 77I + 84C): 3.2 fold
mean fold increase in resistance (Table 11 #11, protease genotype 10I + 24I + 36I + 46I + 71V + 84C): 47 fold
Fold change in IC50 (Table 12, V19263, genotype 77I): 0.4 fold
Fold change in IC50 (Table 12, V20160, genotype WT): 0.6 fold
Fold change in IC50 (Table 12, V021667, genotype 10I): 1.2 fold
Fold change in IC50 (Table 12, V030496, genotype 10I + 77I): 0.5 fold
Fold change in IC50 (Table 12, V048869, genotype 10I + 54M + 77I + 90M): 20.0 fold
Fold change in IC50 (Table 12, V048872, genotype 33F + 54M + 77I + 90M): 8.7 fold
Fold change in IC50 (Table 12, V048873, genotype 33F + 54M + 77I + 90M): 11.4 fold
Fold change in IC50 (Table 12, V048877, genotype 10I + 33F + 77I + 90M): 20.5 fold
Fold change in IC50 (Table 12, V048878, genotype 10I + 33F + 54M + 71V + 77I + 90M): 17.2 fold
Fold change in IC50 (Table 12, V048879, genotype 10I + 33F + 54M + 71V + 77I + 90M): 74.0 fold
Fold change in IC50 (Table 12, V048880, genotype 10I + 33F + 77I + 90M): 3.6 fold
Fold change in IC50 (Table 12, V052940, genotype 71V): 0.4 fold
Fold change in IC50 (Table 12, V052942, genotype 10I + 71V): 0.6 fold
Fold change in IC50 (Table 12, V052943, genotype 10I + 90M): 1.8 fold
Fold change in IC50 (Table 12, V052944, genotype 10I + 90M): 1.5 fold
Fold change in IC50 (Table 12, V052945, genotype 77I + 90M): 1.9 fold
Fold change in IC50 (Table 12, V052946, genotype 71V + 90M): 2.0 fold
Fold change in IC50 (Table 12, V052947, genotype 10I + 77I + 90M): 6.9 fold
Fold change in IC50 (Table 12, V052948, genotype 10I + 71V + 90M): 10.5 fold
Fold change in IC50 (Table 12, V052949, genotype 10I + 71V + 77I + 90M): 2.3 fold
Fold change in IC50 (Table 12, V052950, genotype 33F): 1.5 fold
Fold change in IC50 (Table 12, V052951, genotype 33F + 77I): 0.3 fold
Fold change in IC50 (Table 12, V052953, genotype 10I + 33F + 77I): 1.1 fold
Fold change in IC50 (Table 12, V052954, genotype 33F + 77I + 90M): 2.2 fold
Fold change in IC50 (Table 12, V052955, genotype 33F + 71V + 90M): 77.9 fold
Fold change in IC50 (Table 12, V052977, genotype 10I + 33F + 54M): 35.5 fold
Fold change in IC50 (Table 12, V052978, genotype 10I + 33F + 54M + 71V + 90M): 17.9 fold
Fold change in IC50 (Table 12, V052979, genotype 10I + 54M): 20.0 fold
Fold change in IC50 (Table 12, V052980, genotype 10I + 54M + 90M): 4.1 fold
Fold change in IC50 (Table 12, V052981, genotype 10I + 54M + 71V + 90M): 9.4 fold
Fold change in IC50 (Table 12, V052982, genotype 10I + 54M + 71V + 77I + 90M): 13.4 fold
Fold change in IC50 (Table 12, V053832, genotype 10I + 33F): 2.9 fold
